Measured values reported in ChEMBL document CHEMBL1140860, “Synthesis and evaluation of dihydroartemisinin and dihydroartemisitene acetal dimers showing anticancer and antiprotozoal activity” (Bioorg Med Chem, 2009).

What was measured:
CAKI-1 = test: Growth inhibition of human Caki1 cells after 48 hrs by sulforhodamine B assay; type: functional; conditions: CAKI-1, 48 h
[1] = Selectivity index, ratio of TC50 for african green monkey (Cercopithecus aethiops) Vero cells to IC50 for chloroquine-sensitive Plasmodium falciparum D6; type: toxicity, cell-based
SR = test: Growth inhibition of human SR cells after 48 hrs by sulforhodamine B assay; type: functional
NCI-H522 = test: Growth inhibition of human NCI-H522 cells after 48 hrs by sulforhodamine B assay; type: functional; conditions: NCI-H522, 48 h
BT-549 = test: Growth inhibition of human BT549 cells after 48 hrs by sulforhodamine B assay; type: functional; conditions: BT-549, 48 h
UACC-62 = test: Growth inhibition of human UACC62 cells after 48 hrs by sulforhodamine B assay; type: functional; conditions: UACC-62, 48 h
K562 = test: Growth inhibition of human K562 cells after 48 hrs by sulforhodamine B assay; type: functional; conditions: K562, 48 h
NCI-H23 = test: Growth inhibition of human NCI-H23 cells after 48 hrs by sulforhodamine B assay; type: functional; conditions: NCI-H23, 48 h
SK-MEL-2 = test: Growth inhibition of human SK-MEL-2 cells after 48 hrs by sulforhodamine B assay; type: functional; conditions: SK-MEL-2, 48 h
SNB-75 = test: Growth inhibition of human SNB75 cells after 48 hrs by sulforhodamine B assay; type: functional; conditions: SNB-75, 48 h
OVCAR-3 = test: Growth inhibition of human OVCAR-3 cells after 48 hrs by sulforhodamine B assay; type: functional; conditions: OVCAR-3, 48 h
T47D = test: Growth inhibition of human T47D cells after 48 hrs by sulforhodamine B assay; type: functional
MOLT-4 = test: Growth inhibition of human MOLT4 cells after 48 hrs by sulforhodamine B assay; type: functional; conditions: MOLT-4, 48 h
SF-295 = test: Growth inhibition of human SF295 cells after 48 hrs by sulforhodamine B assay; type: functional; conditions: SF-295, 48 h
HCT-116 = test: Growth inhibition of human HCT116 cells after 48 hrs by sulforhodamine B assay; type: functional; conditions: HCT-116, 48 h
MCF7 = test: Growth inhibition of human MCF7 cells after 48 hrs by sulforhodamine B assay; type: functional; conditions: MCF7, 48 h
UACC-257 = test: Growth inhibition of human UACC257 cells after 48 hrs by sulforhodamine B assay; type: functional; conditions: UACC-257, 48 h
A498 = test: Growth inhibition of human A498 cells after 48 hrs by sulforhodamine B assay; type: functional; conditions: A498, 48 h
SN12C = test: Growth inhibition of human SN12C cells after 48 hrs by sulforhodamine B assay; type: functional
SK-MEL-5 = test: Growth inhibition of human SK-MEL-5 cells after 48 hrs by sulforhodamine B assay; type: functional; conditions: SK-MEL-5, 48 h
SK-OV-3 = test: Growth inhibition of human SKOV3 cells after 48 hrs by sulforhodamine B assay; type: functional; conditions: SK-OV-3, 48 h
HOP-92 = test: Growth inhibition of human HOP92 cells after 48 hrs by sulforhodamine B assay; type: functional; conditions: HOP-92, 48 h
MDA-MB-231 = test: Growth inhibition of human MDA-MB-231 cells after 48 hrs by sulforhodamine B assay; type: functional; conditions: MDA-MB-231, 48 h
NCI-H226 = test: Growth inhibition of human NCI-H226 cells after 48 hrs by sulforhodamine B assay; type: functional; conditions: NCI-H226, 48 h
LOX IMVI = test: Growth inhibition of human LOXIMVI cells after 48 hrs by sulforhodamine B assay; type: functional
EKVX = test: Growth inhibition of human EKVX cells after 48 hrs by sulforhodamine B assay; type: functional
UO-31 = test: Growth inhibition of human UO31 cells after 48 hrs by sulforhodamine B assay; type: functional; conditions: UO-31, 48 h
[2] = Growth inhibition of human Hs 578T cells after 48 hrs by sulforhodamine B assay; type: functional
PC-3 = test: Growth inhibition of human PC3 cells after 48 hrs by sulforhodamine B assay; type: functional; conditions: PC-3, 48 h
NCI-H322M = test: Growth inhibition of human NCI-H322M cells after 48 hrs by sulforhodamine B assay; type: functional
ACHN = test: Growth inhibition of human ACHN cells after 48 hrs by sulforhodamine B assay; type: functional
HL-60 = test: Growth inhibition of human HL-60(TB) cells after 48 hrs by sulforhodamine B assay; type: functional; conditions: HL-60, 48 h
SF-268 = test: Growth inhibition of human SF268 cells after 48 hrs by sulforhodamine B assay; type: functional; conditions: SF-268, 48 h
Plasmodium falciparum [3] = test: Antimalarial activity after 72 hrs against chloroquine-sensitive Plasmodium falciparum D6 infected in erythrocytes by LDH assay; type: functional, organism-based; conditions: D6, 72 h
SF-539 = test: Growth inhibition of human SF539 cells after 48 hrs by sulforhodamine B assay; type: functional; conditions: SF-539, 48 h
[4] = Cytotoxicity against african green monkey Vero cells after 48 hrs by neutral red assay; type: cell-based; conditions: chlorocebus sabaeus, read-out: TC50
DU-145 = test: Growth inhibition of human DU145 cells after 48 hrs by sulforhodamine B assay; type: functional; conditions: DU-145, 48 h
A549 = test: Growth inhibition of human A549 cells after 48 hrs by sulforhodamine B assay; type: functional; conditions: A549, 48 h
MDA-N = test: Growth inhibition of human MDA-N cells after 48 hrs by sulforhodamine B assay; type: functional
OVCAR-8 = test: Growth inhibition of human OVCAR8 cells after 48 hrs by sulforhodamine B assay; type: functional; conditions: OVCAR-8, 48 h
[5] = Growth inhibition of human […] cells after 48 hrs by sulforhodamine B assay; type: functional
KM12 = test: Growth inhibition of human KM12 cells after 48 hrs by sulforhodamine B assay; type: functional; conditions: KM12, 48 h
OVCAR-4 = test: Growth inhibition of human OVCAR4 cells after 48 hrs by sulforhodamine B assay; type: functional; conditions: OVCAR-4, 48 h
SW-620 = test: Growth inhibition of human SW620 cells after 48 hrs by sulforhodamine B assay; type: functional; conditions: SW-620, 48 h
OVCAR-5 = test: Growth inhibition of human OVCAR5 cells after 48 hrs by sulforhodamine B assay; type: functional; conditions: OVCAR-5, 48 h
NCI-H460 = test: Growth inhibition of human NCI-H460 cells after 48 hrs by sulforhodamine B assay; type: functional; conditions: NCI-H460, 48 h
HCC 2998 = test: Growth inhibition of human HCC2998 cells after 48 hrs by sulforhodamine B assay; type: functional; conditions: HCC 2998, 48 h
IGROV-1 = test: Growth inhibition of human IGROV1 cells after 48 hrs by sulforhodamine B assay; type: functional; conditions: IGROV-1, 48 h
SNB-19 = test: Growth inhibition of human SNB19 cells after 48 hrs by sulforhodamine B assay; type: functional; conditions: SNB-19, 48 h
Malme-3M = test: Growth inhibition of human MALME-3M cells after 48 hrs by sulforhodamine B assay; type: functional
Plasmodium falciparum [6] = test: Antimalarial activity after 72 hrs against chloroquine-resistant Plasmodium falciparum W2 infected erythrocytes by LDH assay; type: functional, organism-based; conditions: W2, 72 h

With `COCC(CO[C@H]1O[C@@H]2O[C@@]3(C)CC[C@H]4[C@H](C)CC[C@@H]([C@H]1C)[C@@]24OO3)O[C@H]1O[C@@H]2O[C@@]3(C)CC[C@H]4[C@H](C)CC[C@@H]([C@H]1C)[C@@]24OO3` (some centres not stated) the GI50 (CAKI-1) was 192 nM, the selectivity ratio [1] was > 43 and the GI50 (SR) was 15 nM. It also gave a GI50 (NCI-H522) of 58 nM, a GI50 (BT-549) of 7520 nM and a GI50 (UACC-62) of 135 nM. It also gave a GI50 (K562) of 27 nM, a GI50 (NCI-H23) of 81 nM and a GI50 (SK-MEL-2) of 122 nM. For the same compound, the GI50 (SNB-75) was 22600 nM, the GI50 (OVCAR-3) was 65 nM and the GI50 (T47D) was 14 nM. For the same compound, the GI50 (MOLT-4) was 27 nM, the GI50 (SF-295) was 4630 nM and the GI50 (HCT-116) was 12 nM. The GI50 (MCF7) was 150 nM, the GI50 (UACC-257) was 159 nM and the GI50 (A498) was 148 nM. For the same compound, the GI50 (SN12C) was 153 nM, the GI50 (SK-MEL-5) was 496 nM and the GI50 (SK-OV-3) was 10900 nM. The GI50 (HOP-92) was 71 nM, the GI50 (MDA-MB-231) was 13100 nM and the GI50 (NCI-H226) was 87 nM. For the same compound, the GI50 (LOX IMVI) was 23 nM, the GI50 (EKVX) was 689 nM and the GI50 (UO-31) was 125 nM. The GI50 [2] was 74 nM, the GI50 (PC-3) was 19 nM and the GI50 (NCI-H322M) was 5960 nM. The GI50 (ACHN) was 189 nM, the GI50 (HL-60) was 28 nM and the GI50 (SF-268) was 6290 nM. For the same compound, the IC50 (Plasmodium falciparum [3]) was 17200 nM, the GI50 (SF-539) was 4040 nM and the CC50 at 48 h [4] was > 745000 nM. For the same compound, the GI50 (DU-145) was 8340 nM, the GI50 (A549) was 61 nM and the GI50 (MDA-N) was 518 nM. For the same compound, the GI50 (OVCAR-8) was 130 nM, the GI50 [5] was 4 nM and the GI50 (KM12) was 18 nM. The GI50 (OVCAR-4) was 5690 nM, the GI50 (SW-620) was 15 nM and the GI50 (OVCAR-5) was 104 nM. The GI50 (NCI-H460) was 81 nM, the GI50 (HCC 2998) was 108 nM and the GI50 (IGROV-1) was 4200 nM. It also gave a GI50 (SNB-19) of 249 nM, a GI50 (Malme-3M) of 8130 nM and an IC50 (Plasmodium falciparum [6]) of 4700 nM.

With `C[C@H]1[C@H](OCCO[C@H]2O[C@@H]3O[C@@]4(C)CC[C@H]5[C@H](C)CC[C@@H]([C@H]2C)[C@@]35OO4)O[C@@H]2O[C@@]3(C)CC[C@H]4[C@H](C)CC[C@@H]1[C@@]24OO3` the GI50 (CAKI-1) was 90 nM, the selectivity ratio [1] was > 25 and the GI50 (SR) was 25 nM. For the same compound, the GI50 (NCI-H522) was 680 nM, the GI50 (BT-549) was 74 nM and the GI50 (UACC-62) was 72 nM. The GI50 (K562) was 20 nM, the GI50 (NCI-H23) was 36 nM and the GI50 (SK-MEL-2) was 212 nM. The GI50 (SNB-75) was 366 nM, the GI50 (OVCAR-3) was 1280 nM and the GI50 (T47D) was 16 nM. For the same compound, the GI50 (MOLT-4) was 15 nM, the GI50 (SF-295) was 1100 nM and the GI50 (HCT-116) was 30 nM. For the same compound, the GI50 (MCF7) was 28 nM, the GI50 (UACC-257) was 54 nM and the GI50 (A498) was 8110 nM. For the same compound, the GI50 (SN12C) was 55 nM, the GI50 (SK-MEL-5) was 34 nM and the GI50 (SK-OV-3) was 17900 nM. The GI50 (HOP-92) was 52 nM, the GI50 (MDA-MB-231) was 534 nM and the GI50 (NCI-H226) was 9540 nM. For the same compound, the GI50 (LOX IMVI) was 30 nM, the GI50 (EKVX) was 40 nM and the GI50 (UO-31) was 35 nM. It also gave a GI50 [2] of 7650 nM, a GI50 (PC-3) of 22 nM and a GI50 (NCI-H322M) of 7900 nM. The GI50 (ACHN) was 224 nM, the GI50 (HL-60) was 15 nM and the GI50 (SF-268) was 7540 nM. The IC50 (Plasmodium falciparum [3]) was 31900 nM, the GI50 (SF-539) was 63 nM and the CC50 at 48 h [4] was > 800000 nM. It also gave a GI50 (DU-145) of 8190 nM, a GI50 (A549) of 59 nM and a GI50 (MDA-N) of 61 nM. For the same compound, the GI50 (OVCAR-8) was 34 nM, the GI50 [5] was < 8 nM and the GI50 (KM12) was 33 nM. It also gave a GI50 (OVCAR-4) of 41 nM, a GI50 (SW-620) of 25 nM and a GI50 (OVCAR-5) of 59 nM. For the same compound, the GI50 (NCI-H460) was 46 nM, the GI50 (HCC 2998) was 67 nM and the GI50 (IGROV-1) was 8280 nM. For the same compound, the GI50 (SNB-19) was 8260 nM, the GI50 (Malme-3M) was 235 nM and the IC50 (Plasmodium falciparum [6]) was 21900 nM.
